From patent US8067042B1 (Mutual Pharmaceutical Company, Inc., priority 2007, dated 2011) come the findings set out here.

The target in one series is T1, CYP2B6 (Homo sapiens, UniProt P20813).
T1 sequence (P20813 1-491): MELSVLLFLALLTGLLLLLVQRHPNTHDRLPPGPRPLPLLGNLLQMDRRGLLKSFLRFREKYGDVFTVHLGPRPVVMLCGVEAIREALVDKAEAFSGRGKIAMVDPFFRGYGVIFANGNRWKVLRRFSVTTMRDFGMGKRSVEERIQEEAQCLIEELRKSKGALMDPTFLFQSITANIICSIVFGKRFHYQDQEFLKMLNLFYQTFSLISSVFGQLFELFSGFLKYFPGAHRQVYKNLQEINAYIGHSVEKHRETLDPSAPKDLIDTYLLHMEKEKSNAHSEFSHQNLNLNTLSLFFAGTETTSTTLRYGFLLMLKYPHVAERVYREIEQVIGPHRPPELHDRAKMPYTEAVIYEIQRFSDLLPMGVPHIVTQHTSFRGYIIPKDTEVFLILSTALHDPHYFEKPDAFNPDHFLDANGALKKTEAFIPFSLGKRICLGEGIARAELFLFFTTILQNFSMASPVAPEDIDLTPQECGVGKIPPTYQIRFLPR
Conditions: 50 μM megestrol acetate, microsomes, CYP2B6 inhibitor.

The target in series [1] is T2, CYP2D6 (Homo sapiens, UniProt P10635).
Procedure: (§1) The stock solutions were added to incubation mixtures to obtain the final concentrations of 5 and 50 μM, each containing 1% acetonitrile.
(§2) After a 5 minute preincubation, nicotinamide adenine dinucleotide phosphate (NADPH) regenerating system (NRS; 1.7 mg/mL β-NADP, 7.8 mg/mL glucose-6-phosphate, and 6 units/mL glucose-6-phosphate dehydrogenase in 2% sodium bicarbonate solution) was added to initiate the reaction. The final incubation volume was 0.5 mL. Incubations were continued for 60 minutes.
(§3) All incubations were conducted at 37±1° C. in a shaking water bath. All incubations were carried out in triplicates.
(§4) After a 5-minute preincubation, 2% sodium bicarbonate solution was added to the incubation mixtures. The final incubation volume was 0.5 mL. Incubations were continued for 60 minutes.
(§5) Incubation reactions, including the matrix controls and metabolic negative controls, were terminated by adding 0.5 mL methanol.
(§6) The samples were analyzed on a Supelcosil LC-18 column (3μ, 120 Å, 3.0×100 mm).
Series [2] has as its target T3, CYP2C19 (Homo sapiens, UniProt P33261). The class given is in vitro ADME. Conditions: 50 μM megestrol acetate, microsomes.
In series [3] the test system is CYP2A6. Particulars: 50 μM megestrol acetate, microsomes, tranylcypromine.
Series [4] has as its system CYP2E1.
Procedure: as §1, §2, §3, §4, §5, §6
The subject of another series is CYP2C8. The series is classed as in vitro ADME. Particulars: 50 μM megestrol acetate, microsomes, quercetin.
In series [5] the target is T3, CYP2C19.
Procedure: as §1
(§7) Microsomes were prepared by differential centrifugation of liver homogenates pooled from at least ten human donors.
as §2, §3, §4, §5, §6
Another series has as its target CYP2C9 (Homo sapiens, UniProt P11712).
For series [6], the target named is T2, CYP2D6. The class given is in vitro ADME. The arrangement: purchased BD Biosciences Discovery Labware, Woburn, Mass; host or cells: baculovirus-infected insect cells. Particulars: 50 μM megestrol acetate, 20 pmol CYP2D6.
Series [7] deals with T4, CYP1A2 (Homo sapiens, UniProt P05177).
T4 sequence (P05177 1-516): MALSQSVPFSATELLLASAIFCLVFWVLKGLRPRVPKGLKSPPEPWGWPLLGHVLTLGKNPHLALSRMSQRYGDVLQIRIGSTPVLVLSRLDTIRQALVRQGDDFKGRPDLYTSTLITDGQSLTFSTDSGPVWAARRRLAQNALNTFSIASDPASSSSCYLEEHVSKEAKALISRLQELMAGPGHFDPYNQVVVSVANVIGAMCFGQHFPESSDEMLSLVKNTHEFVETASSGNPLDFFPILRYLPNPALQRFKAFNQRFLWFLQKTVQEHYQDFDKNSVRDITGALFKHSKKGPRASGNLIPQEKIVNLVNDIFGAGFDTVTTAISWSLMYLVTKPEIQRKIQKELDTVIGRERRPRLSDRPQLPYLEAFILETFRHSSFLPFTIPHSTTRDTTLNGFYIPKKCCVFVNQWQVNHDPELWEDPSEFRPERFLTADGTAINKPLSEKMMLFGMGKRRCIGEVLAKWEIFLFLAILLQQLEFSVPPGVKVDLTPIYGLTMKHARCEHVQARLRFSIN
The series is classed as in vitro ADME. The arrangement: purchased BD Biosciences Discovery Labware, Woburn, Mass; host or cells: baculovirus-infected insect cells. Conditions: 50 μM megestrol acetate, 20 pmol CYP1A2.

Series [8] has as its target T5, CYP3A4 (Homo sapiens, UniProt P08684).
Target sequence in this assay (P08684 whole entry): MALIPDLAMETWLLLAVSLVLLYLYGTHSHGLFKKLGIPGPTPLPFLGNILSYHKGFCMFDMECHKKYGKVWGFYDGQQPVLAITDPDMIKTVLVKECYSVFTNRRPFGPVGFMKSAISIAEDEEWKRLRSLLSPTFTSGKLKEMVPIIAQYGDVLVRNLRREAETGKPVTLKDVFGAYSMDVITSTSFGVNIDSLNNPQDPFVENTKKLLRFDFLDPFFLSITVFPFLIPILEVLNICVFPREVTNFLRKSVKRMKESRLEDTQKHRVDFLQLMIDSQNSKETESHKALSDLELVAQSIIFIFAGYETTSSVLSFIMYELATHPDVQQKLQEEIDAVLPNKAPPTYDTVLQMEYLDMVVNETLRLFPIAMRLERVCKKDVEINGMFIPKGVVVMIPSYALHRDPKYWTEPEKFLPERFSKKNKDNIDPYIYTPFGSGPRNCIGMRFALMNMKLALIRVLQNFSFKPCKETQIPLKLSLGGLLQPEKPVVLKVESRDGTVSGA
Procedure: as §1, §2, §3, §4, §5, §6
Series [9] concerns the target T6, CYP2A6 (Homo sapiens, UniProt P11509).
T6 sequence (P11509 1-494): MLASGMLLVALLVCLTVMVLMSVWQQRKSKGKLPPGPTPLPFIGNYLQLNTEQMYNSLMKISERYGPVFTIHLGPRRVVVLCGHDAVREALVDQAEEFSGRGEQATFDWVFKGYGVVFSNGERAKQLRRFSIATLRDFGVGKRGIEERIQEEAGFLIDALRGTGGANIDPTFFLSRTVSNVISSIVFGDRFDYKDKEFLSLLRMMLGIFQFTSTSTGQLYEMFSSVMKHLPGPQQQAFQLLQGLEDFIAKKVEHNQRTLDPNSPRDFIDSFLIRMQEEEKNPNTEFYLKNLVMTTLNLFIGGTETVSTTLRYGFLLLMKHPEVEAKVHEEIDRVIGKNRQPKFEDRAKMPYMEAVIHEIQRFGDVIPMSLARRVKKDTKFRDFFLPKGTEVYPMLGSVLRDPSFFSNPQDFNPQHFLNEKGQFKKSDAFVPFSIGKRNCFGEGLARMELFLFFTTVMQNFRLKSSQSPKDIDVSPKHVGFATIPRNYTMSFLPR
The class given is in vitro ADME. Particulars: 50 μM megestrol acetate, 20 pmol CYP2A6. The arrangement: purchased BD Biosciences Discovery Labware, Woburn, Mass; host or cells: baculovirus-infected insect cells.

The target in series [10] is T4, CYP1A2.
Procedure: as §1, §7, §2, §3, §4, §5, §6
Series [11] deals with CYP2E1. The series is classed as in vitro ADME. Particulars: 50 μM megestrol acetate, microsomes, diethyldithiocarbamate.
In series [12] the target is T5, CYP3A4. The class given is in vitro ADME. The arrangement: purchased BD Biosciences Discovery Labware, Woburn, Mass; host or cells: baculovirus-infected insect cells. Conditions: 50 μM megestrol acetate, 20 pmol CYP3A4.
Target sequence in this assay (P08684 2-503 limits assumed): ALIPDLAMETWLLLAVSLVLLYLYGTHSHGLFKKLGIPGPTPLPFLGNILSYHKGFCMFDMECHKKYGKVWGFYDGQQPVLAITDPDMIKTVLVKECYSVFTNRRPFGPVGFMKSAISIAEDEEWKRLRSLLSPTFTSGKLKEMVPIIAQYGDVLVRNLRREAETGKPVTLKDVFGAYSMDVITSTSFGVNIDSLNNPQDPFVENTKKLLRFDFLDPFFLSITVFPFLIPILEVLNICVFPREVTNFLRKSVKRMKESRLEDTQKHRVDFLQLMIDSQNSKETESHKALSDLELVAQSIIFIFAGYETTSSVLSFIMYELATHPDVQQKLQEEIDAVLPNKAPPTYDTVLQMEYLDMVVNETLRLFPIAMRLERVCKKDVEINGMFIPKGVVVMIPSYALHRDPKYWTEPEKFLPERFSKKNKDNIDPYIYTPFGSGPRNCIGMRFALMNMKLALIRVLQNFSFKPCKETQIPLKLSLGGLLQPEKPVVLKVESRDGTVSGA
Where [13] appears, read: human, microsomes, 60 min, pH 7.4.

T3 sequence (P33261 whole entry): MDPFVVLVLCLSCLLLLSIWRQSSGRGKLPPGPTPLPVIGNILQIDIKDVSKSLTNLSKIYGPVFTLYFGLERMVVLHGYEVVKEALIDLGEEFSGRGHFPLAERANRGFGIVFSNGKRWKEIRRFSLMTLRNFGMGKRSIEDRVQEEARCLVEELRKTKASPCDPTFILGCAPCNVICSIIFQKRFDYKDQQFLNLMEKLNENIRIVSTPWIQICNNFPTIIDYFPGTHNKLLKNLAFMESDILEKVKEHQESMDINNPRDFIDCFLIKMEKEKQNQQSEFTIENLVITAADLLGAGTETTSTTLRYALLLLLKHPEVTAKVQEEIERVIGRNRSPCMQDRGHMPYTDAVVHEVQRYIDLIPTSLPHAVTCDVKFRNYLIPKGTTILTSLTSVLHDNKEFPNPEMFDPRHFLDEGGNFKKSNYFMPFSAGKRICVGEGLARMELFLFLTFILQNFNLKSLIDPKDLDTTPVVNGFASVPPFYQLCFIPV
T2 sequence (P10635 whole entry): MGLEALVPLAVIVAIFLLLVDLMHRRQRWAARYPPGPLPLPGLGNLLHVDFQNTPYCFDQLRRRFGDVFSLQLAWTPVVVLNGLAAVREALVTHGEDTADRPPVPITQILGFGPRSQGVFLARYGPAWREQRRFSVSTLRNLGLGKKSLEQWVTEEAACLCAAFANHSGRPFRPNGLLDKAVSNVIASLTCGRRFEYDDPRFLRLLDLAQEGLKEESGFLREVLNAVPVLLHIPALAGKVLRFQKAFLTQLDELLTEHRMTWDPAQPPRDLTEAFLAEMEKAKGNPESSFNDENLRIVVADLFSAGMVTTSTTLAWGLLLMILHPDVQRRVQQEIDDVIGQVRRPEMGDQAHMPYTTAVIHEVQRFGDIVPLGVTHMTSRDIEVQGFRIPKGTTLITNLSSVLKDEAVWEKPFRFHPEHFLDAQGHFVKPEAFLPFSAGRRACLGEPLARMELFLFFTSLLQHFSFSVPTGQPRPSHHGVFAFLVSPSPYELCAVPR
CYP2C9, sequence (P11712 whole entry): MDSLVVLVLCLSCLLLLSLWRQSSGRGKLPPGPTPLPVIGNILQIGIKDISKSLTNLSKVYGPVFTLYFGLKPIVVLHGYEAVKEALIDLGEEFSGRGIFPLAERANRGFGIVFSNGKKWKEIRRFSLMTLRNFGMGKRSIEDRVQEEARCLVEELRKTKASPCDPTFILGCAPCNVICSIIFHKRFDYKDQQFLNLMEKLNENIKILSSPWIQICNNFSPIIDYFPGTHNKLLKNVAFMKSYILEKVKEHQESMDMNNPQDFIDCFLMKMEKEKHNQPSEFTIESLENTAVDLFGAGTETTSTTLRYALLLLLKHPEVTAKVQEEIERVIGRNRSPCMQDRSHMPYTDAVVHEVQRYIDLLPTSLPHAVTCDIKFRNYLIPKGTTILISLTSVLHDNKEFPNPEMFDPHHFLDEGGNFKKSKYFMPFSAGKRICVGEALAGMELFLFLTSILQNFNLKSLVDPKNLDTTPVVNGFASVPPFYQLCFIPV
Procedure for CYP2C9: as §1, §7, §2, §3, §4, §5, §6

On to `CC(=O)O[C@]1(C(C)=O)CC[C@H]2[C@@H]3C=C(C)C4=CC(=O)CC[C@]4(C)[C@H]3CC[C@@]21C` [Megestrol Acetate, 17 α-acetyloxy-6-methylpregna-4,6-diene-3,20-dione], for which the “difference in metabolism in the presence or absence of the inhibitor (LC/MS)” value on CYP2B6 is “no significant difference in metabolism”; on CYP2C19 [2], “no significant difference in metabolism”; in the series on CYP2A6 [3], “a slight difference in metabolism”; in the series on CYP2C8 it was “a significant difference in metabolism”; in the series on CYP2E1 [11] it was “a significant difference in metabolism”. Further, the “percent metabolized in presence vs absence of inhibitor (unpaired two-tailed t-test)” value at CYP2D6 [1] was “not different from the percentage of megestrol acetate metabolized in the absence of the inhibitor”; with CYP2E1 [4], “less than that of the percentage of megestrol acetate metabolized in the absence of the inhibitor”; at CYP2C19 [5] it was “not different from the percentage of megestrol acetate metabolized in the absence of the inhibitor”; on CYP2C9 it was “not different from the percentage of megestrol acetate metabolized in the absence of the inhibitor”; on CYP3A4 [8], “less than that of the percentage of megestrol acetate metabolized in the absence of the inhibitor”; at CYP1A2 [10] it was “does not differ from the percentage of megestrol acetate metabolized in the absence of the inhibitor”. In addition, the “metabolized in pooled human liver microsomes” value on CYP2D6 [1] (setting [13]), in the series with CYP2E1 [4] (setting [13]), on CYP2C19 [5] (setting [13]), on CYP2C9 (setting [13]), at CYP3A4 [8] (setting [13]) and at CYP1A2 [10] (setting [13]) was greater than 20% throughout. The metabolites formed entry is on record as “no metabolites were detected” at CYP2D6 [6] and “no metabolites were formed” on CYP2A6 [9]. The “metabolism based on analysis of metabolites formed” value on CYP1A2 [7] is given as less than 1%. Also, the “metabolism of megestrol acetate by mass spectrometric methods” value at CYP3A4 [12] is listed as “More than 50%”.
